pEC50: −log10 of the molar value. A value given as a limit tells only on which side of the number the result lay.

From patent publication US20110166123A1, “NOVEL COMPOSITIONS AND METHODS OF USE” (priority 2008, published 2011) come the findings set out here.

For this experiment, the system named is human immunodeficiency virus type 1 (HIV-1). Kind of experiment: microbe, parasite or virus in culture. The format is cell-based. To be noted: Human immunodeficiency virus 1, HeLa, 48 h, HIV-1 luciferase reporter, HeLa cells, 48 hours after infection.
For the compound `CC(C)[C@@H](CO)n1cc(C(=O)O)c(=O)c2cc(Cc3cccc(Cl)c3F)ncc21` [Example 5A, 6-(3-Chloro-2-fluoro-benzyl)-1-((S)-1-hydroxymethyl-2-methyl-propyl)-4-oxo-1,4-dihydro-[1,7]naphthyridine-3-carboxylic acid], the pEC50 is 7.00 to 8.00.

The compound `CC(C)[C@@H](CO)n1cc(C(=O)O)c(=O)c2cc(Cc3ccc(F)c(F)c3)ncc21` [Example 5B, 6-(3,4-Difluoro-benzyl)-1-((S)-1-hydroxymethyl-2-methyl-propyl)-4-oxo-1,4-dihydro-[1,7]naphthyridine-3-carboxylic acid] had a negative-log EC50 (pEC50) below 7.00.

For the compound `CC(C)[C@@H](CO)n1cc(C(=O)O)c(=O)c2cc(Cc3cccc(Cl)c3)ncc21` [Example 5C, 6-(3-Chloro-benzyl)-1-((S)-1-hydroxymethyl-2-methyl-propyl)-4-oxo-1,4-dihydro-[1,7]naphthyridine-3-carboxylic acid], the pEC50 was below 7.00.

`COc1nc(Cc2cccc(Cl)c2F)cc2c(=O)c(C(=O)O)cn([C@H](CO)C(C)C)c12` [Example 5D, 6-(3-Chloro-2-fluoro-benzyl)-1-((S)-1-hydroxymethyl-2-methyl-propyl)-8-methoxy-4-oxo-1,4-dihydro-1,7-naphthyridine-3-carboxylic acid] gave a negative logarithm of the EC50 (pEC50) below 7.00.

Compound `CC(C)[C@H]1COc2nc(Cc3cccc(Cl)c3F)cc3c(=O)c(C(=O)O)cn1c23` [Example 5E, (S)-8-(3-chloro-2-fluoro-benzyl)-3-isopropyl-6-oxo-2,3-dihydro-6H-1-oxa-3a,9-diaza-phenalene-5-carboxylic acid] gave a pEC50 below 7.00.

`CC[C@@H](CO)n1cc(C(=O)O)c(=O)c2cc(Cc3cccc(Cl)c3F)ncc21` [Example 5G] gave a pEC50 below 7.00.

In turn, `CCC(C)C(CO)n1cc(C(=O)O)c(=O)c2cc(Cc3cccc(Cl)c3F)ncc21` (stereo not drawn) [Example 5H] gave a pEC50 of 7.00 to 8.00.

For `CCC[C@@H](CO)n1cc(C(=O)O)c(=O)c2cc(Cc3cccc(Cl)c3F)ncc21` [Example 5I], the negative-log EC50 (pEC50) is below 7.00.

`CCCC[C@@H](CO)n1cc(C(=O)O)c(=O)c2cc(Cc3cccc(Cl)c3F)ncc21` [Example 5J] gave a negative-log EC50 (pEC50) below 7.00.

As to `C[C@H](CO)n1cc(C(=O)O)c(=O)c2cc(Cc3cccc(Cl)c3F)ncc21` [Example 5K], the negative logarithm of the EC50 (pEC50) is below 7.00.

`O=C(O)c1cn(C(CO)CO)c2cnc(Cc3cccc(Cl)c3F)cc2c1=O` [Example 5L] had a pEC50 below 7.00.

In turn, `O=C(O)c1cn([C@H](CO)C2CCCCC2)c2cnc(Cc3cccc(Cl)c3F)cc2c1=O` [Example 5M] gave a pEC50 of 7.00 to 8.00.

Compound `O=C(O)c1cn([C@H](CO)CC2CCCCC2)c2cnc(Cc3cccc(Cl)c3F)cc2c1=O` [Example 5N] had a negative-log EC50 (pEC50) below 7.00.

`O=C(O)c1cn(C[C@H](O)c2ccccc2)c2cnc(Cc3cccc(Cl)c3F)cc2c1=O` [Example 5O] showed a pEC50 below 7.00.

On to `O=C(O)c1cn([C@@H](CO)c2ccccc2)c2cnc(Cc3cccc(Cl)c3F)cc2c1=O` [Example 5P], for which the negative logarithm of the EC50 (pEC50) was below 7.00.

In the case of `CC(C)[C@@H](CO)n1cc(C(=O)O)c(=O)c2cc(Cc3ccc(Cl)c(Cl)c3)ncc21` [Example 5Q], the pEC50 is 7.00 to 8.00.

For the compound `CC(C)[C@@H](CO)n1cc(C(=O)O)c(=O)c2cc(Cc3cccc(Cl)c3F)nnc21` [Example 6, 3-(3-chloro-2-fluorobenzyl)-8-(1-hydroxy-3-methylbutan-2-yl)-5-oxo-5,8-dihydropyrido[2,3-c]pyridazine-6-carboxylic acid], the negative logarithm of the EC50 (pEC50) was below 7.00.

Compound `CCCn1cc(C(=O)OC(=O)c2ccccc2)c(=O)c2c(N)nc(SC)nc21` [Example 7A] gave a pEC50 below 7.00.

Regarding `CCCn1cc(C(=O)O)c(=O)c2c(N)nc(SC)nc21` [Example 7B], the pEC50 was below 7.00.

`CCCn1cc(C(=O)NN)c(=O)c2c(N)nc(SC)nc21` [Example 7C] had a negative logarithm of the EC50 (pEC50) below 7.00.

`CCCn1cc(C(=O)OC(=O)c2ccccc2)c(=O)c2c(NC(C)=O)nc(SC)nc21` [Example 7D] had a negative logarithm of the EC50 (pEC50) below 7.00.
